Data published in patent US20120095028A1, “3-OXA-7-AZABICYCLO[3.3.1]NONANES” (Pfizer Inc., priority 2009, published 2012).
Several values for one entry are separate records, joined by “and”; a condition that tells them apart may be missing. Identical values can stand only once.

Molecular target: T1, human GPR119 (Homo sapiens, UniProt Q8TDV5)
T1 construct: host or cells: HEK293-CRE-β-lactamase cells expressing hGPR119
T1 sequence (Q8TDV5 1-335): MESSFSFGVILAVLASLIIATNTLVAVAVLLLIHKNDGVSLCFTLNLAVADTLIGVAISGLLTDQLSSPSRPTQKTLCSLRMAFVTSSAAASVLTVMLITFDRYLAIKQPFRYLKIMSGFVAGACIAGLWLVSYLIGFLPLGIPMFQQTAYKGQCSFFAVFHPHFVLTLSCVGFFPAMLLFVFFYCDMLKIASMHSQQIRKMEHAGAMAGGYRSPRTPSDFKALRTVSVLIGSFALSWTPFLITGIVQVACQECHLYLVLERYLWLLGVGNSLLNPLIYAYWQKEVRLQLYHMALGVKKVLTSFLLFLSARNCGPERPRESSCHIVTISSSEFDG
Test: GPR119 agonist cell-based hGPR119 HEK293-CRE β-lactamase reporter assay
Settings: one value per run; for EC50: hGPR119-HEK-CRE-β-lactamase cells, 16 hours incubation; for Emax: read-out: Intrinsic Activity*
Procedure: The assay for GPR119 agonists utilizes a cell-based (hGPR119 HEK293-CRE β-lactamase) reporter construct where agonist activation of human GPR119 is coupled to β-lactamase production via a cyclic AMP response element (CRE). GPR119 activity is then measured utilizing a FRET-enabled R-lactamase substrate, CCF4-AM (Live Blazer FRET-B/G Loading kit, Invitrogen cat #K1027). Specifically, hGPR119-HEK-CRE-β-lactamase cells (Invitrogen 2.5×10^7/mL) were removed from liquid nitrogen storage, and diluted in plating medium (Dulbecco's modified Eagle medium high glucose (DMEM; Gibco Cat #11995-065), 10% heat inactivated fetal bovine serum (HIFBS; Sigma Cat #F4135), 1× MEM Nonessential amino acids (Gibco Cat #15630-080), 25 mM HEPES pH 7.0 (Gibco Cat #15630-080), 200 nM potassium clavulanate (Sigma Cat #P3494). The cell concentration was adjusted using cell plating medium and 50 μL of this cell suspension (12.5×10^4 viablecells) was added into each well of a black, clear bottom, poly-d-lysine coated 384-well plate (Greiner Bio-One cat #781946) and incubated at 37° C. in a humidified environment containing 5% carbon dioxide. After 4 hours the plating medium was removed and replaced with 40 μL of assay medium (Assay medium is plating medium without potassium clavulanate and HIFBS). Varying concentrations of each compound to be tested was then added in a volume of 10 uL (final DMSO≦0.5%) and the cells were incubated for 16 hours at 37° C. in a humidified environment containing 5% carbon dioxide. Plates were removed from the incubator and allowed to equilibrate to room temperature for approximately 15 minutes. 10 uL of 6× CCF4/AM working dye solution (prepared according to instructions in the Live Blazer FRET-B/G Loading kit, Invitrogen cat #K1027) was added per well and incubated at room temperature for 2 hours in the dark. Fluorescence was measured on an EnVision fluorimetric plate reader, excitation 405 nm, emission 460 nm/535 nm. EC50 determinations were made from agonist-response curves analyzed with a curve fitting program using a 4-parameter logistic dose-response equation.

[1] = percent of maximal activity relative to standard GPR119 agonist at a final concentration of 10 μM

Row | Structure (SMILES) | EC50 | Emax [1] [%] | Intrinsic Activity* [1]
1 | CC(C)OC(=O)N1C[C@H]2COC[C@@H](C1)[C@H]2Oc1ncnc2c1CCN2c1ccc(S(C)(=O)=O)cc1F [Example 2, Isopropyl 9-anti-({7-[2-fluoro-4-(methylsulfonyl)phenyl]-6,7-dihydro-5H-pyrrolo[2,3-d]pyrimidin-4-yl}oxy)-3-oxa-7-azabicyclo[3.3.1]nonane-7-carboxylate] | 23.8 nM | 93 | 
2 | CC(C)OC(=O)N1C[C@H]2COC[C@@H](C1)[C@@H]2Oc1ncnc2c1CCN2c1ccc(S(C)(=O)=O)cc1F [Example 1, Isopropyl 9-syn-({7-[2-fluoro-4-(methylsulfonyl)phenyl]-6,7-dihydro-5H-pyrrolo[2,3-d]pyrimidin-4-yl}oxy)-3-oxa-7-azabicyclo[3.3.1]nonane-7-carboxylate] | 10.5 nM and 12.8 nM and 23.3 nM | 90 | 88% and 87%
